Experimental data taken from US20140213538A1, “LYSOPHOSPHATIDIC ACID RECEPTOR ANTAGONISTS” (InterMune, Inc., priority 2013, published 2014).

Target: T1, LPA/S1P GPCR of interest (Homo sapiens, UniProt Q92633)
T1 construct: host or cells: CHO
Experiment: Beta-Arrestin based assay (PathHunter)
Type: cell-based
Description: CMV promoter based DNA constructs expressing a fusion of the LPA/S1P GPCR of interest and ProLink™ tag were used to transfect EA Parental™ CHO cells (DiscoverX, Fremont, Calif.) using a FuGENE® transfection kit (Roche). Beta-Arrestin based assays were conducted 24-48 hrs post transfection using PathHunter® assay kits (DiscoverX, Fremont, Calif.). Agonist and antagonist assays were performed in quadruplicate in white 384 well plates. End point luminescence data were plotted and fit to a 4 parameter logistic function to obtain IC50 values. For antagonist assays, an IC80 concentration of agonist (LPA) equal to 0.5 micromolar was used.

T1 sequence (Q92633 whole entry): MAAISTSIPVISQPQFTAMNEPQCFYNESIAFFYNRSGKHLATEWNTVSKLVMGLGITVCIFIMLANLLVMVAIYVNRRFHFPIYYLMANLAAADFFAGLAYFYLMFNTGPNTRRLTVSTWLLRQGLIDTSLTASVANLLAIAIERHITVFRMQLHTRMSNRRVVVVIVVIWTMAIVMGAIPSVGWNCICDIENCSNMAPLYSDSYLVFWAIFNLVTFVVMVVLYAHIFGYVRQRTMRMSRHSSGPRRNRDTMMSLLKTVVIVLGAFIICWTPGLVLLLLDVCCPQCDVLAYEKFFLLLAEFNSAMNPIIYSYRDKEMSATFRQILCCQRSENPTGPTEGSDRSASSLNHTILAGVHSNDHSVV

Structure (SMILES) | EC50 [nM]
C[C@@H](OC(=O)Nc1c(-c2cc3sc(-c4ccc(C5(C(=O)O)CC5)c(S(C)(=O)=O)c4)cc3s2)cnn1C)c1ccccc1 [IT441] | > 500
C[C@@H](OC(=O)Nc1c(-c2ccc(C#CC(=O)Nc3ccccc3C(=O)O)cc2)cnn1C)c1ccccc1 [IT430] | > 500
Cc1nsc(-c2cc3sc(-c4ccc5[nH]c(C6(C(=O)O)CC6)nc5c4)cc3s2)c1NC(=O)O[C@H](C)c1ccccc1 [IT421] | > 500
Cc1nsc(-c2ccc3c(c2)CCCc2cc(CC(=O)O)ccc2-3)c1NC(=O)O[C@H](C)c1ccccc1 [IT225] | 50 to 500
COc1cc(-c2cc3sc(-c4cnn(C)c4NC(=O)O[C@H](C)c4ccccc4)cc3s2)cnc1C1(C(=O)O)CC1 [IT275] | 50 to 500
C[C@@H](OC(=O)Nc1c(-c2cc3sc(-c4ccc5[nH]c(C6(C(=O)O)CC6)nc5c4)cc3s2)cnn1C)c1ccccc1 [IT427] | > 500
COc1cc(CC(=O)O)c(F)cc1-c1cc2sc(-c3snc(C)c3NC(=O)O[C@H](C)c3ccccc3)cc2s1 [IT382] | > 500
Cc1nsc(-c2cc3sc(-c4ccc(C5(C(=O)O)CC5)cc4Cl)cc3s2)c1NC(=O)O[C@H](C)c1ccccc1 [IT391] | 50 to 500
Cc1noc(-c2ccc(-c3ccc(Oc4ccc(C(=O)O)s4)cc3)cc2)c1NC(=O)O[C@H](C)c1ccccc1 [IT409] | 50 to 500
C[C@@H](OC(=O)Nc1c(-c2cc3sc(-c4ccc(C5(C(=O)O)CC5)c(Cl)c4)cc3s2)cnn1C)c1ccccc1 [IT367] | < 50
C[C@@H](OC(=O)Nc1c(-c2ccc(-c3nnc(C4(C(=O)O)CC4)o3)cc2)nnn1C)c1ccccc1 [IT175] | > 500
Cc1cc(CC(=O)O)c(F)cc1-c1cc2sc(-c3snc(C)c3NC(=O)O[C@H](C)c3ccccc3)cc2s1 [IT252] | > 500
Cc1nsc(-c2cc3sc(-c4ccc(CC(=O)O)c(S(C)(=O)=O)c4)cc3s2)c1NC(=O)O[C@H](C)c1ccccc1 [IT433] | > 500
Cc1nsc(-c2cc3sc(-c4ccc5occ(CC(=O)O)c5c4)cc3s2)c1NC(=O)O[C@H](C)c1ccccc1 [IT333] | 50 to 500
Cc1nsc(-c2cc3sc(-c4ccc(CC(=O)O)cc4C(F)(F)F)cc3s2)c1NC(=O)O[C@H](C)c1ccccc1 [IT337] | > 500
COc1cc(C2(C(=O)O)CC2)c(OC)cc1-c1cc2sc(-c3nnn(C)c3NC(=O)O[C@H](C)c3ccccc3)cc2s1 [IT415] | > 500
COc1cc(-c2cc3sc(-c4nnn(C)c4NC(=O)O[C@H](C)c4ccccc4)cc3s2)ccc1CC(=O)O [IT220] | 50 to 500
COc1cc(CC(=O)O)ccc1-c1cc2sc(-c3snc(C)c3NC(=O)O[C@H](C)c3ccccc3)cc2s1 [IT163] | > 500
Cc1cc(-c2cc3sc(-c4cnn(C)c4NC(=O)O[C@H](C)c4ccccc4)cc3s2)c(F)cc1CC(=O)O [IT243] | > 500
Cc1nsc(-c2cc3sc(-c4ccc(-c5nnc(C6(C(=O)O)CC6)o5)cc4)cc3s2)c1NC(=O)O[C@H](C)c1ccccc1 [IT216] | > 500
C[C@@H](OC(=O)Nc1c(-c2ccc(C#CC(=O)O)cc2)cnn1C)c1ccccc1 [IT371] | > 500
C[C@@H](OC(=O)Nc1c(-c2ccc(-c3nnc(C4(C(=O)O)CC4)s3)cc2)nnn1C)c1ccccc1 [IT208] | > 500
C[C@@H](OC(=O)Nc1c(-c2cc3sc(-c4ccc(C5(C(=O)O)CC5)cc4OC(F)(F)F)cc3s2)cnn1C)c1ccccc1 [IT385] | 50 to 500

Structure (SMILES) | EC50 [nM]
Cc1nsc(-c2cc3sc(-c4ccc(-c5nnc(C6(C(=O)O)CC6)s5)cc4)cc3s2)c1NC(=O)O[C@H](C)c1ccccc1 [IT289] | > 500
C[C@@H](OC(=O)Nc1c(-c2ccc(C#CC(=O)N[C@H](C(=O)O)c3ccccc3)cc2)cnn1C)c1ccccc1 [IT402] | > 500
C[C@@H](OC(=O)Nc1c(-c2cc3sc(-c4ccc(CC(=O)O)c5ccccc45)cc3s2)cnn1C)c1ccccc1 [IT319] | > 500
C[C@@H](OC(=O)Nc1c(-c2cc3sc(-c4ccc(-c5nnc(C6(C(=O)O)CC6)o5)cc4)cc3s2)nnn1C)c1ccccc1 [IT218] | > 500
Cc1nsc(-c2cc3sc(-c4ccc(CC(=O)O)c(C(F)(F)F)c4)cc3s2)c1NC(=O)O[C@H](C)c1ccccc1 [IT204] | > 500
COc1cc(-c2cc3sc(-c4snc(C)c4NC(=O)O[C@H](C)c4ccccc4)cc3s2)ccc1C1(C(=O)O)CC1 [IT331] | 50 to 500
Cc1cc(-c2cc3sc(-c4nnn(C)c4NC(=O)O[C@H](C)c4ccccc4)cc3s2)c(F)cc1CC(=O)O [IT242] | > 500
C[C@@H](OC(=O)Nc1c(-c2cc3sc(-c4ccc5scc(C6(C(=O)O)CC6)c5c4)cc3s2)cnn1C)c1ccccc1 [IT370] | > 500
Cc1noc(-c2ccc(-c3ccc(Oc4nnn(C)c4C(=O)O)cc3)cc2)c1NC(=O)O[C@H](C)c1ccccc1 [IT471] | 50 to 500
C[C@@H](OC(=O)Nc1[nH]ncc1C#Cc1cc2sc(C3(C(=O)O)CC3)cc2s1)c1ccccc1 [IT127] | > 500
Cc1nsc(-c2cc3sc(-c4ccc5occ(C6(C(=O)O)CC6)c5c4)cc3s2)c1NC(=O)O[C@H](C)c1ccccc1 [IT352] | > 500
Cn1ncc(C#Cc2cc3sc(C4(C(=O)O)CC4)cc3s2)c1N [IT113] | > 500
C[C@@H](OC(=O)Nc1c(-c2cc3sc(-c4ccc(C5(C(=O)O)CC5)c(C(F)(F)F)c4)cc3s2)nnn1C)c1ccccc1 [IT380] | 50 to 500
C[C@@H](OC(=O)Nc1c(-c2cc3sc(-c4ccc(C5(C(=O)O)CC5)c5ccccc45)cc3s2)nnn1C)c1ccccc1 [IT321] | 50 to 500
C[C@@H](OC(=O)Nc1nn(C)cc1-c1ccc(-c2cc(F)c(Oc3ncccc3C(=O)O)c(F)c2)cc1)c1ccccc1 [IT472] | > 500
C[C@@H](OC(=O)Nc1c(-c2cc3sc(-c4ccc(CC(=O)O)nc4)cc3s2)cnn1C)c1ccccc1 [IT214] | 50 to 500
Cc1noc(-c2ccc(NC(=O)c3csc(C4(C(=O)O)CC4)n3)cc2)c1NC(=O)O[C@H](C)c1ccccc1 [IT152] | > 500
Cc1nsc(-c2cc3sc(-c4ccc5c(C6(C(=O)O)CC6)coc5c4)cc3s2)c1NC(=O)O[C@H](C)c1ccccc1 [IT397] | > 500
Cc1cc(CC(=O)O)c(F)cc1-c1cc2sc(-c3nnn(C)c3NC(=O)O[C@H](C)c3ccccc3)cc2s1 [IT253] | 50 to 500
C[C@@H](OC(=O)Nc1c(-c2ccc(C#CC(=O)N(C)CCC(=O)O)cc2)cnn1C)c1ccccc1 [IT466] | > 500
Cc1nsc(-c2cc3sc(-c4cc(Cl)c(CC(=O)O)cc4F)cc3s2)c1NC(=O)O[C@H](C)c1ccccc1 [IT205] | > 500
COc1cc(C2(C(=O)O)CC2)c(F)cc1-c1cc2sc(-c3snc(C)c3NC(=O)O[C@H](C)c3ccccc3)cc2s1 [IT412] | > 500
C[C@@H](OC(=O)Nc1c(-c2cc3sc(-c4cnc(C5(C(=O)O)CC5)c(F)c4)cc3s2)cnn1C)c1ccccc1 [IT392] | 50 to 500

Structure (SMILES) | EC50 [nM]
C[C@@H](OC(=O)Nc1c(-c2cc3sc(-c4ccc(CC(=O)O)cc4OC(F)(F)F)cc3s2)nnn1C)c1ccccc1 [IT416] | > 500
COc1cc(-c2cc3sc(-c4nnn(C)c4NC(=O)O[C@H](C)c4ccccc4)cc3s2)c(OC)cc1CC(=O)O [IT350] | > 500
Cc1nsc(-c2ccc(-c3ccc(C4(C(=O)O)CC4)s3)cc2)c1NC(=O)O[C@H](C)c1ccccc1 [IT237] | 50 to 500
C[C@@H](OC(=O)Nc1c(-c2cc3sc(-c4ccc5c(CC(=O)O)coc5c4)cc3s2)nnn1C)c1ccccc1 [IT369] | 50 to 500
Cc1noc(-c2ccc(-c3ccc(Oc4cccc(C(=O)O)c4)cc3)cc2)c1NC(=O)O[C@H](C)c1ccccc1 [IT356] | 50 to 500
C[C@@H](OC(=O)Nc1c(-c2cc3sc(-c4ccc(C5(C(=O)O)CC5)nc4)cc3s2)cnn1C)c1ccccc1 [IT269] | 50 to 500
Cc1nsc(-c2cc3sc(C4CCC(C(=O)O)C4)cc3s2)c1NC(=O)O[C@H](C)c1ccccc1 (stereo partly shown) [IT276] | > 500
Cc1nsc(-c2cc3sc(-c4ccc(C5(C(=O)O)CC5)c(Cl)c4)cc3s2)c1NC(=O)O[C@H](C)c1ccccc1 [IT267] | 50 to 500
Cc1cc(-c2cc3sc(-c4snc(C)c4NC(=O)O[C@H](C)c4ccccc4)cc3s2)ccc1CC(=O)O [IT292] | > 500
COc1cc(-c2cc3sc(-c4snc(C)c4NC(=O)O[C@H](C)c4ccccc4)cc3s2)c(OC)cc1CC(=O)O [IT351] | > 500
C[C@@H](OC(=O)Nc1c(-c2ccc(-c3cc(F)c(Oc4cc(F)ccc4C(=O)O)c(F)c3)cc2)nnn1C)c1ccccc1 [IT514] | < 50
COc1cc(-c2cc3sc(-c4cnn(C)c4NC(=O)O[C@H](C)c4ccccc4)cc3s2)c(OC)cc1CC(=O)O [IT349] | > 500
C[C@@H](OC(=O)Nc1c(-c2cc3sc(-c4ccc(-c5nnc(C6(C(=O)O)CC6)s5)cc4)cc3s2)nnn1C)c1ccccc1 [IT288] | 50 to 500
C[C@@H](OC(=O)Nc1c(-c2cc3sc(-c4ccc(CC(=O)O)cc4OC(F)(F)F)cc3s2)cnn1C)c1ccccc1 [IT383] | > 500
COc1cc(-c2cc3sc(-c4nnn(C)c4NC(=O)O[C@H](C)c4ccccc4)cc3s2)ccc1C1(C(=O)O)CC1 [IT330] | 50 to 500
Cc1nsc(-c2ccc(-c3cnc(C4(C(=O)O)CC4)s3)cc2)c1NC(=O)O[C@H](C)c1ccccc1 [IT202] | 50 to 500
Cc1cc(-c2cc3sc(-c4cnn(C)c4NC(=O)O[C@H](C)c4ccccc4)cc3s2)ccc1CC(=O)O [IT254] | 50 to 500
Cc1cc(CC(=O)O)c(F)cc1-c1cc2sc(-c3cnn(C)c3NC(=O)O[C@H](C)c3ccccc3)cc2s1 [IT251] | 50 to 500
COc1cc(-c2cc3sc(-c4nnn(C)c4NC(=O)O[C@H](C)c4ccccc4)cc3s2)cnc1C1(C(=O)O)CC1 [IT358] | 50 to 500
Cc1noc(-c2ccc(-c3ccc(Oc4c(C(=O)O)ncn4C)cc3)cc2)c1NC(=O)O[C@H](C)c1ccccc1 [IT444] | < 50
Cc1nsc(-c2cc3sc(-c4ccc(C5(C(=O)O)CC5)cn4)cc3s2)c1NC(=O)O[C@H](C)c1ccccc1 [IT426] | 50 to 500
